Columns and labels:
Assay type in all cases: cell-based, Human
[1] = tested on: iPS cells (G4); assay: Differentiation of iPS cells into neural precursor cells on PA6 feeder cells (SDIA method), immunostaining; details: day 14, PA6 feeder cells; for Nestin and Oct3/4 immunostaining of colonies: 2 μM Dorsomorphin and/or 10 μM SB431542
Method: Human ES cells (KhES-1, KhES-2, and KhES-3) from the Institute for Frontier Medical Sciences, Kyoto University were provided, and they were then cultured by the known method (Suemori H, et al. Biochem Biophys Res Commun. 345: 926-32, 2006). Human iPS cells (G1, G4, B6, and B7) were provided by Dr. Yamanaka of Kyoto University and then cultured by the known method (Takahashi K, et al. Cell. 131: 861-72, 2007 and Nakagawa M, et al. Nat Biotechnol. 26: 101-6, 2008). PA6 cells (RIKEN BRC Cell Bank) were seeded on a gelatin-coated dish and then cultured using MEM alpha containing 10% FBS. Upon induction of differentiation, cells were cultured for at least one day, confirmed to be confluent, and then used as feeder cells. Human iPS cells (404C2) was established by introducing reprogramming factors (OCT3/4, SOX2, KLF4, L-MYC, LIN28, and shRNA for p53) into human fibroblast using a vector containg EBNA-1 and oriP (U.S. 61/232,402 and U.S. 61/307,306), then cultured by same method of other human iPS cells.
ES cells or iPS cells were cultured using STO cells as feeder cells. One day before the initiation of differentiation induction, 10 μM ROCK inhibitor (Y27632) was added into a medium. CTK dissociation solution (0.25% Trypsin, 1 mg/ml Collagenase and KSR 20%, and 1 mM CaCl2) was added at 500 μl/10 cm dish, followed by 3 to 5 minutes of incubation at 37° C. The dish was gently tapped to remove feeder cells. After washing once with PBS, the CTK dissociation solution was added again, followed by 10-15 minutes of incubation at 37° C. ES cells or iPS cells detached from the dish were suspended in 5 ml of differentiation medium (DMEM/Ham's F12 containing 5% knockout serum replacement (KSR), 2 mM L-glutamine, non-essential amino acids, and 1 μM 2-mercaptoethanol (2-ME)). After centrifugation, supernatants were removed. Again, the cells were suspended in 1 ml of the differentiation medium and then separated from each other by pipetting, so as to result in small aggregates (10-20 cells/clump).
The obtained small aggregates were seeded on dishes having PA6 as feeder cells at concentrations ranging from 2500 to 5000 cells/cm^2. As a medium, a differentiation medium containing 2 μM Dorsomorphin (Sigma) and/or 10 μM SB431542 (Sigma) and/or 300 ng/ml Noggin (HZ-1026: HumanZyme) or 2 μl/well DMSO was used. 10 μM Y27632 was added only in the initial culture. Medium exchange was not performed until day 7, and it was then performed once every 3 to 4 days.
On day 14 after differentiation induction, cells were fixed with 4% PFA for 30 minutes at 4° C. and then immunostained in PBS with each antibody listed in Table 1.

[2] = tested on: KhES-1, KhES-2, KhES-3, G1, G4, B6, and B7; assay: SDIA method, colony counts per well in 7 ES/iPS cell lines; details: day 14, 7 cell lines; for Number of colonies per well compared with control group or Noggin group: n=28
Method: When at least one positive cell could be confirmed within a colony, such colony was counted as a positive colony. […] Biochem Biophys Res Commun. 345: 926-32, 2006). Human iPS cells (G1, G4, B6, and B7) were provided by Dr. Yamanaka of Kyoto University and then cultured by the known method (Takahashi K, et al. Cell. 131: 861-72, 2007 and Nakagawa M, et al. Nat Biotechnol. 26: 101-6, 2008). PA6 cells (RIKEN BRC Cell Bank) were seeded on a gelatin-coated dish and then cultured using MEM alpha containing 10% FBS. Upon induction of differentiation, cells were cultured for at least one day, confirmed to be confluent, and then used as feeder cells. […] ES cells or iPS cells were cultured using STO cells as feeder cells. One day before the initiation of differentiation induction, 10 μM ROCK inhibitor (Y27632) was added into a medium. […] The dish was gently tapped to remove feeder cells. After washing once with PBS, the CTK dissociation solution was added again, followed by 10-15 minutes of incubation at 37° C. ES cells or iPS cells detached from the dish were suspended in 5 ml of differentiation medium (DMEM/Ham's F12 containing 5% knockout serum replacement (KSR), 2 mM L-glutamine, non-essential amino acids, and 1 μM 2-mercaptoethanol (2-ME)). After centrifugation, supernatants were removed. Again, the cells were suspended in 1 ml of the differentiation medium and then separated from each other by pipetting, so as to result in small aggregates (10-20 cells/clump). The obtained small aggregates were seeded on dishes having PA6 as feeder cells at concentrations ranging from 2500 to 5000 cells/cm^2. As a medium, a differentiation medium containing 2 μM Dorsomorphin (Sigma) and/or 10 μM SB431542 (Sigma) and/or 300 ng/ml Noggin (HZ-1026: HumanZyme) or 2 μl/well DMSO was used. 10 μM Y27632 was added only in the initial culture. Medium exchange was not performed until day 7, and it was then performed once every 3 to 4 days. On day 14 after differentiation induction, cells were fixed with 4% PFA for 30 minutes at 4° C. and then immunostained in PBS with each antibody listed in Table 1. […]

[3] = tested on: KhES-5 cells; assay: Optimal concentration of LDN-193189 with SB431542 (SDIA method), KhES-5; details: day 14, with SB431542, PA6 cells
Method: Differentiation was induced by co-culturing an ES cell line (Kh-ES5) with PA6 cells according to the SDIA method, then culturing the cells in a medium supplemented with 5-500 nM LDN-193189 and SB431542.
On one day before the initiation of differentiation induction, CTK dissociation solution (0.25% Trypsin, 1 mg/ml Collagenase and KSR 20%, and 1 mM CaCl2) was added to ES cells (KhES-1, KhES-4, and KhES-5), colonies were dissociated. ES cells detached from the dish were subjected to removal of MEF on gelatin coating, suspended in a differentiation medium (DMEM/Ham's F12 containing 5% knockout serum replacement (KSR), 2 mM L-glutamine, non-essential amino acids, and 1 μM 2-mercaptoethanol (2-ME)) for 1 hour, and then separated by pipetting so as to result in small aggregates (10-20 cells/clump). The obtained small aggregates were seeded on PA6 at a concentration ranging from 2500 to 5000 cells/cm^2. On day 4 of culture, the medium was exchanged with a differentiation medium supplemented with 10 μM SB431542 and 5-1,000 nM LDN-193189. Three days later, the medium was exchanged with a differentiation medium without SB431542 and LDN-193189. Thereafter, medium exchanges with such a differentiation medium without SB431542 and LDN-193189 were performed at 2- to 3-day intervals. […]

[4] = tested on: KhES-1 cell line and KhES-4 cell line; assay: Optimal concentration of LDN-193189 with SB431542 (SDIA method), KhES-1 and KhES-4; details: day 14, with SB431542, PA6 cells
Method: On one day before the initiation of differentiation induction, CTK dissociation solution (0.25% Trypsin, 1 mg/ml Collagenase and KSR 20%, and 1 mM CaCl2) was added to ES cells (KhES-1, KhES-4, and KhES-5), colonies were dissociated. ES cells detached from the dish were subjected to removal of MEF on gelatin coating, suspended in a differentiation medium (DMEM/Ham's F12 containing 5% knockout serum replacement (KSR), 2 mM L-glutamine, non-essential amino acids, and 1 μM 2-mercaptoethanol (2-ME)) for 1 hour, and then separated by pipetting so as to result in small aggregates (10-20 cells/clump). The obtained small aggregates were seeded on PA6 at a concentration ranging from 2500 to 5000 cells/cm^2. On day 4 of culture, the medium was exchanged with a differentiation medium supplemented with 10 μM SB431542 and 5-1,000 nM LDN-193189. Three days later, the medium was exchanged with a differentiation medium without SB431542 and LDN-193189. Thereafter, medium exchanges with such a differentiation medium without SB431542 and LDN-193189 were performed at 2- to 3-day intervals.
Human ES cells (KhES-1, KhES-4, and KhES-5) were subjected to differentiation induction performed by a stromal cell-derived inducing activity method (SDIA method) using LDN-193189 at a concentration ranging from 5 nM to 1000 nM, in order to determine an optimal concentration of LDN-193189.

| Compound | Immunostaining for undifferentiation markers Nanog or SSEA3 and neural markers Pax6 or PSA-NCAM [1] | Nestin and Oct3/4 immunostaining of colonies [1] | Number of colonies per well compared with control group or Noggin group [2] | Concentration of LDN-193189 at which differentiation into neural precursor cells was induced relatively successfully (Nestin staining) [3] | Increase of effect at LDN-193189 concentration higher than 50 nM [3] | Concentration of LDN-193189 at which cells were stained to the highest degree with Pax6 [4] | Elimination of undifferentiated cells (Nestin-positive vs Oct3/4-positive colonies) [2] |
| --- | --- | --- | --- | --- | --- | --- | --- |
| c1cc(-c2cnn3cc(-c4ccc(OCCN5CCCCC5)cc4)cnc23)ccn1 [Dorsomorphin, 6-[4-(2-piperidin-1-yl-ethoxy)phenyl]-3-pyridin-4-yl-pyrazolo[1,5-a]pyrimidine] | undifferentiated cells and neural precursor cells coexisted | colonies positive for both Nestin and Oct3/4 were confirmed | significantly higher |  |  |  |  |
| c1ccc2c(-c3cnn4cc(-c5ccc(N6CCNCC6)cc5)cnc34)ccnc2c1 [LDN-193189, 4-(6-(4-(piperazin-1-yl)phenyl)pyrazolo[1,5-a]pyrimidin-3-yl)quinoline] |  |  |  | ≥ 50 nM | not observed that the effect was increased | 20 nM |  |
| NC(=O)c1ccc(-c2nc(-c3ccc4c(c3)OCO4)c(-c3ccccn3)[nH]2)cc1 [SB431542, 4-[4-(1,3-benzodioxol-5-yl)-5-(2-pyridinyl)-1H-imidazol-2-yl]benzamide] | neural precursor cells appeared in aggregated cell populations | aggregated cell populations were positive for Nestin | significantly higher |  |  |  | effective in elimination of undifferentiated cells |

Source: patent US11261425B2, “Method for inducing differentiation of pluripotent stem cells into neural precursor cells” (Kyoto University, priority 2009, dated 2022)
